# Test results published in patent publication US5677466A, “Labelled fibrinogen receptor antagonists, the use thereof and processes for preparing them” (Dr. Karl Thomae, GmbH, priority 1992, dated 1997).
# Tested on: fibrinogen receptor
# Test: fibrinogen receptor binding test with ^3 H-BIBU 52 on human thrombocytes in plasma
# Settings: in the presence of plasma, non-labelled BIBU 52 as competitor
# Protocol: The fibrinogen receptor binding test according to the invention was carried out, for example, using (3S,5S)-5-[(4'-amidino-4-biphenylyl)-oxymethyl]-3-carboxymethyl-pyrrolidin-2-one-[3-^3 H-4-biphenylyl][=^3 H-BIBU 52 ZW] as ligand in the following manner:
# A suspension of human thrombocytes in plasma is incubated with ^3 H-BIBU 52 and varying concentrations of the substance to be tested. The free and bound ligand is separated off by centrifuging and quantitatively determined by scintillation counting. The inhibition of the ^3 H-BIBU 52 binding by the test substance is determined from the measurements obtained.
# In order, for example, to measure the competition of binding of ^3 H-BIBU 52 by non-labelled BIBU 52, blood is taken from an anticubital vein and anticoagulated with trisodium citrate (final concentration 13 mM). The blood is centrifuged for 10 minutes at 170 ×g and the supernatant platelet-rich plasma (PRP) is removed. The remaining blood is sharply centrifuged once more in order to obtain plasma. The PRP is diluted with autologous plasma 1:10. […] 100 μl thereof are measured in order to determine the free ligand. The pellet is dissolved in 500 μl of 0.2N NaOH, 450 μl are mixed with 25 μl of 5N HCl and measured. The residual plasma remaining in the pellet is determined from the ^14 C-content and the bound ligand is determined from the ^3 H-measurement. […]
compound,measurement,value
"N=C(N)c1ccc(-c2ccc(OC[C@@H]3C[C@@H](CC(=O)O)C(=O)N3)cc2)cc1 [BIBU 52, (3S,5S)-5-[(4'-amidino-4-biphenylyl)-oxymethyl]-3-carboxymethyl-pyrrolidin-2-one]",binding of tritiated BIBU 52 to human thrombocytes (FIG. 1),supression of binding
